Patent US20070249637A1, “Inhibitors Of Hepatitis C Virus Protease, And Compositions And Treatments Using The Same” (priority 2004, published 2007)
Where two headings read alike, the source gives them in different places.

Settings: rcm bond, 15-membered ring, Grubbs II (0.15 equiv), DCM, 5.0 mM, 40.0 °C, 2.0 h

| SMILES | ring closure, isolated yield (from C=CCCCCC[C@H](NC(=O)OC(C)(C)C)C(=O)N1C[C@H](Oc2nc(-c3ccccn3)nc3ccsc23)C[C@H]1C(=O)N[C@]1(C(=O)OC)C[C@H]1C=C) [%] | ring closure, isolated yield (from C=CCCCCC[C@H](NC(=O)OC(C)(C)C)C(=O)N1C[C@H](Oc2nc(-c3ccccn3)nc3sccc23)C[C@H]1C(=O)N[C@]1(C(=O)OC)C[C@H]1C=C) [%] |
| --- | --- | --- |
| COC(=O)[C@@]12C[C@H]1/C=C\CCCCC[C@H](NC(=O)OC(C)(C)C)C(=O)N1C[C@H](Oc3nc(-c4ccccn4)nc4ccsc34)C[C@H]1C(=O)N2 | 25 |  |
| COC(=O)[C@@]12C[C@H]1/C=C\CCCCC[C@H](NC(=O)OC(C)(C)C)C(=O)N1C[C@H](Oc3nc(-c4ccccn4)nc4sccc34)C[C@H]1C(=O)N2 |  | 38 |
